Source: patent publication US20080207532A1, “Use of Nordihydroguaiaretic Acid Derivatives in the Treatment of Drug Resistant Cancer, Viral and Microbial Infection” (Johns Hopkins University, priority 2004, published 2008)
Read-outs that look alike come from different tables or passages of the source.

Columns and labels:
[1] = tested on: MCF-7; settings: MCF-7, drug sensitive human breast cancer cell line; read-out: reported IC50; cited from earlier work
[2] = tested on: NCI/ADR-RES cells; test: SRB cytotoxicity assay with median-effect / combination index analysis; type: cell-based, human; settings: for IC50: Homo sapiens
Protocol: The multidrug resistant cell line, NCI/ADR-RES, was obtained from the DTP Human Tumor Cell Line Screen (Developmental Therapeutics Program, NCI). Both cell lines were maintained in Dulbecco's modified Eagle's medium supplemented with 10% fetal bovine serum and the antibiotics penicillin and streptomycin. […] Stocks of M4N and paclitaxel (Sigma-Aldrich, St. Louis, Mo.) were prepared in dimethyl sulfoxide (DMSO) and added to the cell culture medium so that the final concentration of DMSO was one percent. Aqueous stocks of Dox (Sigma-Aldrich) were prepared and filter sterilized before dilution into growth medium.
NCI/ADR-RES cells were seeded at a density of 2×10^4 cells per well in 24 well plates and 24 h later the growth medium was supplemented with M4N, Dox, paclitaxel or combinations of M4N with Dox or M4N with paclitaxel. MAN was used at concentrations between 1.5 and 48 μM. For the combination of MAN and Dox a constant molar ratio of 2.4:1 (M4N:Dox) was used and for M4N and paclitaxel the ratio was 20:1 (M4N:paclitaxel). Three days after drug addition cytoxicity was assessed with the SRB assay (14) with 540 and 690 nm (reference) absorbance measured with a Power Wave 200 microplate reader (Bio-Tek Instruments, Winooski, Vt.).
The combination index (CD isobologram method of Chou and Talalay (16, 17, 18, 19) which is based on the median effect principle, was used to calculate synergism or antagonism for the combined drug effects. Dose-effect curves for each drug, singly and in combination, in serially-diluted concentrations were plotted using the median-effect equation and plot (18, 20) and the CI equation and plot (19). CI values at different effect and dose levels and isobolograms were generated automatically using the computer software CompuSyn (20). With this method, additive, synergistic or antagonistic effects are indicated by CI values of 1, <1, and >1, respectively. Comparison of the ratio of doses required to reach a given effect level for each single drug and the drugs in combination was used to determine the dose-reduction index (DRI).

[3] = tested on: MDR-1 gene; settings: cited from earlier work
[4] = tested on: NCI/ADR-RES multidrug resistant breast cancer xenografts; test: combination therapy against NCI/ADR-RES xenografts in nude mice; settings: two weeks
Protocol: Nude mice bearing NCI/ADR-RES multidrug resistant breast cancer xenografts were used as a model for combination therapy to further examine synergy between M4N and paclitaxel.
T-cell deficient female nude (nu/nu) mice, 5-6 weeks of age, were purchased from Charles River Laboratories (Wilmington, Mass.) and were housed in a pathogen-free room. All experiments involving the mice were carried out in accordance with the Johns Hopkins University Animal Care and Use Committee guideline. The mice were implanted subcutaneously in both flanks with 1×10^6 NCI/ADR-RES cells suspended in Hank's balanced salt solution (HBSS). […] For intraperitoneal (i.p.) administration, M4N, maltose-M3N and paclitaxel were dissolved in a recently developed reduced cremophor solution containing 20% (v) dehydrated ethanol, 20% (v) Cremophor EL, PEG 300, <11% (v) Tween 80 (22). Daily injections of 0.05 ml were performed for each drug and drug combination.
Tumors were measured in two perpendicular dimensions once every seven days, and the tumor volumes were calculated according to the following formula: […]
where a is the width of the tumor (smaller diameter) and b is the length (larger diameter) (23). The mean tumor volume and standard error were calculated for each treatment group. Relative mean tumor volumes, (V/V0), where V is the mean tumor volume at a particular time and V0 is the mean tumor volume at day 0 (23), were determined and used to assess tumor growth inhibition (T/C value) using the following equation:
T/C(%)=Relative Mean Tumor Volume of treated/Relative Mean Volume of control×100.
The NCI standard for the minimal level for antitumor activity (T/C≦42%) was adopted (25). At the termination of the experiment the tumors were excised and fixed in formaldehyde. Tissue samples were then sent to Paragon Bioservices for histology and immunohistochemistry using antibodies against human P-glycoprotein (Pgp).
Two dosage regimens of M4N and paclitaxel, both with a constant molar ratio of 20:1 (M4N:paclitaxel), were employed as determined by in vitro testing to be synergistic as shown in Table 1. The 8 and 16 μmol m^2 doses of pactitaxel were submaximal based on values from other studies (22) and the M4N doses of 160 and 320 μmol/m^2 were arrived at by decreasing the maximum tolerated dose used in our previous study with MCF-7 breast cancer xenografts (5). An additional NDGA derivative was also tested. Maltose-M3N was developed as a water soluble alternative to M4N, however for consistency it was dissolved in the same reduced cremophor solvent system as M4N and paclitaxel for this study.

[5] = tested on: C3 tumors; test: intratumoral treatment of C3 cell-induced tumors in mice; type: in vivo; settings: daily intratumoral injections for 4 days
Protocol: Four C57b1/6 mice were inoculated with 5×10^5 C3 cells subcutaneously between the shoulders. Tumors were allowed to develop for approximately 20 days. The mice then received daily intratumoral injections of 0.1 ml of 0.15 M NaCl, 10 mg, 20 mg or 40 mg of Maltose-M3N dissolved in 0.15 M NaCl. After 4 days of treatment, the mice were euthanized and the tumors were excised, immediately fixed and then stored in 4% formaldehyde in PBS. Tissue samples were then sent to Paragon Bioservices (Baltimore, Md.) for histology and immunohistochemistry using antibodies against Cdc2 and survivin.

[6] = tested on: Hep3B, HT29, K562, LNCaP, and MCF7; test: MTT cell viability of human tumor cell lines; type: cell-based; settings: 72 h, every cell line tested (Hep3B, HT29, K562, LNCaP, MCF7), 3 days
Protocol: Human tumor cell lines were obtained from ATCC (Mannassas, Va.). The human hepatocellular carcinoma cell line, Hep3B, was maintained in Eagle's MEM supplemented with 10% FBS; the human breast cancer cell line, MCF7, was grown in DMEM containing 10% FBS; the human colorectal carcinoma cell line, HT29, was cultured in McCoy's 5a medium with 10% FBS; the human prostate carcinoma cell line, LNCaP, was maintained in RPMI 1640 with 10% FBS and human erythroleukemia cell line, K562, was propagated in Iscove's modified Dulbecco's medium (IMDM) containing 10% FBS. All of the cultures contained the antibiotics penicillin and streptomycin. The C3 cell line was generated by transfection of the EJras-transformed C57B16 (B6) mouse embryo cells with fall length HPV16. C3 cells were grown and maintained in IMDM supplemented with 5% FBS plus penicillin and streptomycin.
For cell culture experiments, Maltose-M3N was dissolved in water to a concentration of 10 mM and then sterilized by filtration. Cells were seeded at approximately 2×10^3 cells per cm^2 in complete media. Twenty-four hours after seeding, the growth media was removed and replaced with media containing the desired concentrations of Maltose-M3N.
Twenty thousand cells were seeded into each well of 24-well plates. […] The solubilized dye was transferred to 96-well plates and read at the wavelength of 540 nm using an ELISA reader.

[7] = solubility in water; type: physicochemical
[8] = tested on: Hep3B cells; test: DAPI staining of nuclei for apoptotic bodies; type: cell-based, human; settings: 60 μM, 72 hr
Protocol: FIG. 9. (A) Effect of Maltose-M3N on the proliferation of human tumor cell lines. HT29, LNCaP, Hep3B, K562, and MCF7 were treated with different concentrations of Maltose-M3N for 72 hours. Percent cell viability was measured by MTT assay and expressed as mean±SD of triplicate data points. (B) Untreated Hep3B cells or treated with 60 μM Maltose-M3N for 72 hr were stained with DAPI. Arrows indicate apoptotic bodies.
The growth inhibitory effect of Maltose-M3N was evaluated in five human cancer cell lines, including Hep3B, HT29, K562, LNCaP, and MCF7.

[9] = 72 h, NCI/ADR-RES, three days, combinations at molar ratio 2.4:1 (M4N:Dox) or 20:1 (M4N:paclitaxel), given as M4N + second drug, read-out: Dm, median effect dose (concentration that inhibits cell growth by 50%)
[10] = single agent, NCI/ADR-RES, read-out: IC50
[11] = M4N/Dox combination 2.4:1, NCI/ADR-RES
[12] = M4N/Dox combination, NCI/ADR-RES
[13] = higher regimen: M4N or Mal-M3N 320, Px 16 μmoles/m^2, i.p. daily
[14] = M4N/paclitaxel combination 20:1, NCI/ADR-RES
[15] = M4N/paclitaxel combination, NCI/ADR-RES
[16] = lower regimen: M4N 160, Px 8 μmoles/m^2, i.p. daily

COc1cccc2c1C(=O)c1c(O)c3c(c(O)c1C2=O)C[C@@](O)(C(=O)CO)C[C@@H]3O[C@H]1C[C@H](N)[C@H](O)[C@H](C)O1 [Dox, doxorubicin]
IC50 [1]: 0.13 µM | concentration necessary to inhibit the growth of 75% of cells (ED75) ([2]; Dox alone, NCI/ADR-RES): 30.5 µM | concentration necessary to inhibit the growth of 75% of cells (ED75) ([2]; Dox with concurrent 11.3 μM M4N, NCI/ADR-RES): 4.7 µM | IC50 [2, 9]: 3.22 µM | IC50 [2, 10]: 3.22 µM | DRI value at ED75 [2, 11]: 6.47 | DRI value at ED90 [2, 11]: 30.50 | DRI value at ED95 [2, 11]: 87.56 | decrease of ED75 by concurrent M4N (DRI) [2, 12]: 6.47 fold | reduction of ED95 by concurrent M4N (DRI) [2, 12]: 87.6 fold

COc1cc2c(cc1O)CCN[C@]21CS[C@@H]2c3c(OC(C)=O)c(C)c4c(c3[C@H](COC1=O)N1[C@@H]2[C@H]2c3c(cc(C)c(OC)c3O)C[C@@H]([C@@H]1O)N2C)OCO4 [ET-743]
MDR-1 gene activation [3]: able to inhibit MDR-1 gene activation

COc1ccc(C[C@H](C)[C@H](C)Cc2ccc(OC)c(OC3OC(CO)C(OC4OC(CO)C(O)C(O)C4O)C(O)C3O)c2)cc1OC (stereo partly shown) [Maltose-M3N]
Relative Mean Tumor Volume [4, 13]: 1.25 | T/C % [4, 13]: 47.7% | Cdc2 protein expression in tumors [5]: reduced expression levels | apoptosis and necrosis by H&E staining [5]: elevated levels of apoptosis and necrosis | survivin protein expression in tumors [5]: reduced expression levels | IC50 [6]: 20 to 40 µM | solubility in aqueous solution [7]: water soluble | mode of cell death (DAPI staining) [8]: cell death occurred via apoptosis

CC(=O)O[C@H]1C(=O)[C@@]2(C)[C@H]([C@H](OC(=O)c3ccccc3)[C@]3(O)C[C@H](OC(=O)[C@H](O)[C@@H](NC(=O)c4ccccc4)c4ccccc4)C(C)=C1C3(C)C)[C@]1(OC(C)=O)CO[C@@H]1C[C@@H]2O [paclitaxel]
IC50 [1]: 0.0064 µM | IC50 [2, 9]: 3.26 µM | IC50 [2, 10]: 3.26 µM | DRI value at ED75 [2, 14]: 54.32 | DRI value at ED90 [2, 14]: 150.31 | DRI value at ED95 [2, 14]: 300.34 | decrease of ED50 by concurrent M4N (DRI) [2, 15]: 19.63 fold | decrease of ED95 by concurrent M4N (DRI) [2, 15]: 300.3 fold | Deaths [4, 13]: 0/7 | Relative Mean Tumor Volume [4, 13]: 1.59 | T/C % [4, 13]: 60.7% | Deaths [4, 16]: 0/7 | Mean Body Weight Change [4, 16]: +0.3 g/mouse | Relative Mean Tumor Volume [4, 16]: 0.90 | T/C % [4, 16]: 34.4%
